Source: US11382872B2, “LSD1 inhibitors as skeletal muscle hypertrophy inducers” (CYTOO, priority 2016, dated 2022)
Counter-ions that a name gives are not always drawn. Like-named read-outs stand apart in the source and are kept apart here.

Experiments:
Human primary myoblasts [1] = assay: Hypertrophy assay (MyoScreen human myotube model): primary screening, retest, dose response; type: cell-based
Human primary myoblasts [2] = assay: as above; type: cell-based; remark: listed apart in the source
Method: Healthy donor primary skeletal cells (Donor 1 and Donor 3) were Clonetics™ Human Skeletal Muscle Myoblasts (HSMM).
(§1) Hypertrophy and Atrophy Rescue assays were performed using an in vitro fully automated human myotube model called MyoScreen™ (Cytoo, France). This model relies on a tight control of the microenvironment that guides the differentiation of human primary myoblasts. Myotubes formed on MyoScreen™ micropatterns present a high level of maturation together with a highly standardized morphology.
(§2) Human primary myoblasts from donors were seeded in MyoScreen™ micropatterned 96-well plates (Cytoo, France), let them adhere for 24 h in growth medium, then run the differentiation in a low horse serum medium for at least 5 days.
(§3) At Day 0, MyoScreen™ plates (Cytoo, France) containing micropatterns were pre-filled with 200 μl/well of growth medium and stored in the incubator at 37° C. Human primary myoblasts were detached from the flasks, count, and seeded into the plates with 15 000 cells per well in 100 μl of growth medium.
(§4) At Day 1, the growth medium was changed for a differentiation medium, 300 μ/well (DMEM with 0.1% horse serum) in which myoblasts started differentiating and forming myotubes.
(§5) At Day 2, the differentiation medium was changed. Then candidate compounds were diluted with differentiation medium and transferred into the plate. The final concentration of DMSO should be not higher than 0.1%. At least 6 wells were treated with the vehicle as a basal control, and 6 wells were treated with IGF-1 at 100 ng/ml as positive hypertrophy control.
(§6) At Day 6, cells were fixed with formalin 5% for 30 min at room temperature, then permeabilized with Triton X-100 at 0.1% in PBS for 15 min, and blocked with PBS+BSA 1% for 20 minutes. Myotubes were incubated with first antibody against Troponin T in blocking buffer for 1 h30, washed three times with PBS, incubated with secondary antibody and Hoescht ( 1/10000) for 1 h30, and washed three times with PBS.
Images were acquired at 10× magnification with an Operetta High Content Imaging System. Image processing and analysis were performed with dedicated algorithms developed on the Acapella High Content Imaging Software (Perkin Elmer) by CYTOO. Eleven fields per well were acquired.
First, segmentation of myotubes and nuclei were done using respectively the Troponin T staining intensity and the Hoechst staining. […] The threshold of segmentation was set-up in order to avoid detecting the background noise and eliminate aberrant small myotube structures.
Then, an image clean-up step was performed on the Troponin T images in order to remove myotubes that touch the border of the image. The final valid myotubes were used to extract myotube morphology parameters including the myotube width and area, and the number of nuclei per myotube.
Nuclei Count, Fusion Index, Mean myotube Area and Number of nuclei per myotube have been validated as relevant and sensitive readouts of myotube differentiation as well as atrophic and hypertrophic induction.
A primary screening was run to identify hypertrophy compounds that increase the myotube differentiation and size. Candidate compounds were tested at 10 μM in monoplicate on Donor 3 cells.
A retest was run, by cherry picking (same compound batch as primary screening): each hit was tested in the same conditions as in the Primary Screening (Donor 3, 10 μM) in six well replicates.
Dose response assays were performed on two healthy donors (Donors 3 and 1): 8 doses of candidate compounds between 33 μM and 0.015 μM, 2 well replicates per dose.

[3] = tested on: Myotubes from the healthy donor 3; assay: Atrophy Rescue assay (MyoScreen) with atrophy inducers; type: cell-based, Human; design: key: +++: total rescue; ++: partial rescue; +: low rescue; conditions: tranylcypromine 1 μM; for atrophy rescue, IL-1: inducer IL-1β 25 ng/mL; for atrophy rescue, TGF-β: inducer TGF-β 0.5 ng/mL; for atrophy rescue, TNF-alpha: inducer TNF-α 2 ng/mL; for atrophy rescue, dexamethasone: inducer dexamethasone 100 μM; for atrophy rescue, Myostatin: inducer myostatin 150 ng/mL
Method: as §1, §2, §3, §4, §5
For Atrophy Rescue assay, one hour after candidate compound addition, atrophy inducers were added at the following final concentration: 150 ng/mL of myostatin, 25 ng/mL of IL-1β, 2 ng/mL of TNF-α, 0.5 ng/mL of TGF-β and 100 μM of dexamethasone.
as §6
Atrophy Rescue assays were performed in triplicate in the presence of atrophy inducers, i.e. TNF-α, IL-1β, Myostatin, TGF-β and dexamethasone, and at 1 μM tranylcypromine.
Atrophy rescue assays was performed for tranylcypromine. Myotubes from the healthy donor 3 were atrophied using different inducers: TNF-α, IL-1β, Myostatin, TGF-β and dexamethasone. The ability of tranylcypromine to block the atrophy induced by these different atrophy inducers was determined.

MyoScreen myotubes = assay: Acetylcholine Receptor (AchR) Clustering Assay (MyoScreen); type: cell-based, Human; conditions: after 7 days of treatment
Method: The MyoScreen™ protocol was performed as described in the Hypertrophy and Atrophy rescue assay in example 1 but was stopped at Day 9 instead of Day 6. At the end of the assay, AchR were immunostained using a specific antibody in addition to Troponin T and nuclei. Images were acquired at ×20 with an Operetta High Content Imaging System from Perkin Elmer. Image processing and analyses were performed with a dedicated algorithm developed on the Acapella High Content Imaging Software (Perkin Elmer). Specific readouts were calculated in each well: nuclei count and myotube fusion index, number of AchR, AchR mean area, AchR total area normalized by the myotube total area.
Remarkably, when labeled with a specific anti-AChR antibody, MyoScreen myotubes at 6 days post-differentiation display AChR clusters punctuated along the sarcolemma membrane in the middle of the myotube fiber and in distinct regions at the ends of myotubes. To develop an automated AChR cluster assay, an AChR detection routine was developed that was sensitive and robust enough to analyze aggregate number and size clusters in images using the Operetta/Acapella system (see Materials and Methods).

[4] = Donor 3, second dose response assay, lower concentrations
[5] = Donor 5, Example 2 dose response
[6] = Donor 7, compounds at 1 μM (IGF-1 positive control)
[7] = Donor 1, first dose response assay (0.015-33 μM)
[8] = Donor 3, Example 2 dose response
[9] = Donor 3, first dose response assay (0.015-33 μM)
[10] = Homo sapiens, Myoblast, Donor 3, second dose response assay

Row | Molecule | % Activity (Human primary myoblasts [1]; [4]) [%] | % Activity (Human primary myoblasts [1]; [5]) [%] | % Activity (Human primary myoblasts [1]; [6]) | % Activity (Human primary myoblasts [2]; [7]) [%] | % Activity (Human primary myoblasts [2]; [8]) [%] | % Activity (Human primary myoblasts [2]; [9]) [%] | atrophy rescue, IL-1 [3] | atrophy rescue, TGF-β [3] | atrophy rescue, TNF-alpha [3] | atrophy rescue, dexamethasone [3] | atrophy rescue, Myostatin [3] | EC50 (Human primary myoblasts [2]; [10]) [nM] | further results
1 | IGF-1: insulin-like growth factor I, positive hypertrophy control at 100 ng/ml | 150 | 145 | 119% | 150 | 190 | 150 | +++ | ++ | +++ | +++ | +++ |  | Retest (% Activity) (Human primary myoblasts [1]; Donor 3, compounds 10 μM, six well replicates (IGF-1 control 100 ng/ml), Myotube fusion index (compound)*100/basal control): 190%; % Activity (Human primary myoblasts [1]; Donor C1, compound at 1 μM (IGF-1 positive control)): 124%; % Activity (Human primary myoblasts [1]; Donor C13, compound at 1 μM (IGF-1 positive control)): 141%; Primary screening (% Activity) (Human primary myoblasts [2]; Donor 3, compounds 10 μM, monoplicate (IGF-1 control 100 ng/ml), Myotube fusion index (compound)*100/basal control): 210%
2 | c1ccc(C2C[C@H]2NC2CCNCC2)cc1 (stereo partly drawn) [GSK LSD1] | 145 | 146 |  |  |  |  |  |  |  |  |  | 0.1 | EC50 (Human primary myoblasts [1]; Homo sapiens, Myoblast, Donor 5, Example 2 dose response): 0.012 nM; activity at 1 µM (Human primary myoblasts [1]; Homo sapiens, Myoblast, Donor 7, compounds at 1 μM (IGF-1 positive control)): 120%; activity at 1 µM (Human primary myoblasts [1]; Homo sapiens, Myoblast, Donor C1, compound at 1 μM (IGF-1 positive control)): 154%; activity at 1 µM (Human primary myoblasts [1]; Homo sapiens, Myoblast, Donor C13, compound at 1 μM (IGF-1 positive control)): 123%; increase of AchR cluster total area (normalized by total myotube area) (MyoScreen myotubes; Donor 3): 50%; increase of AchR cluster total area (normalized by total myotube area) (MyoScreen myotubes; Donor 5): 260%
3 | CN1CCN(C(=O)CN[C@H]2C[C@@H]2c2ccc(OCc3ccccc3)cc2)CC1 [RN 1 dihydrochloride] | 135 |  |  |  |  |  |  |  |  |  |  | 0.1 | 
4 | Cl.Cl.NNCCc1ccc(NC(=O)CCCc2ccccc2)cc1 [Bizine] |  | 119 | 116% at 1 μM |  | 120 |  |  |  |  |  |  |  | EC50 (Human primary myoblasts [1]; [5]): 87 nM; EC50 (Human primary myoblasts [2]; [8]): < 350 nM
5 | N[C@H]1C[C@@H]1c1ccccc1 (relative stereo) [Tranylcypromine, trans-2-phenylcyclopropan-1-amine] | 135 |  |  | 138 |  | 127 | +++ | + | + | ++ | +++ | 50 | EC50 (Human primary myoblasts [1]; Homo sapiens, Myoblast, Donor 1, first dose response assay): < 300 nM; activity at 10 µM (Human primary myoblasts [1]; Homo sapiens, Myoblast, Donor 3, compounds 10 μM, monoplicate (IGF-1 control 100 ng/ml), Myotube fusion index (compound)*100/basal control, read-out: Primary screening (% Activity)): 176%; activity at 10 µM (Human primary myoblasts [1]; Homo sapiens, Myoblast, Donor 3, compounds 10 μM, six well replicates (IGF-1 control 100 ng/ml), Myotube fusion index (compound)*100/basal control, read-out: Retest (% Activity)): 136%; EC50 (Human primary myoblasts [1]; Homo sapiens, Myoblast, Donor 3, first dose response assay): < 30 nM; increase in the fusion index or/and myotube area readouts (Human primary myoblasts [1]; primary screening and retest, Donor 3, 10 μM): > 30%
